# According to ChEMBL document CHEMBL1140940, “Pyrido[2,3-d]pyrimidin-5-ones: a novel class of antiinflammatory macrophage colony-stimulating factor-1 receptor inhibitors” (J Med Chem, 2009):
# Calls of active or inactive are those of the source. No cut-off for these calls is given here.
# Tests used:
# [1] = biological target: T1, Tyrosine-protein kinase receptor UFO (Homo sapiens, UniProt P30530); experiment: Inhibition of Axl by fluorescence polarization competition immunoassay
# T1 sequence (P30530 whole entry): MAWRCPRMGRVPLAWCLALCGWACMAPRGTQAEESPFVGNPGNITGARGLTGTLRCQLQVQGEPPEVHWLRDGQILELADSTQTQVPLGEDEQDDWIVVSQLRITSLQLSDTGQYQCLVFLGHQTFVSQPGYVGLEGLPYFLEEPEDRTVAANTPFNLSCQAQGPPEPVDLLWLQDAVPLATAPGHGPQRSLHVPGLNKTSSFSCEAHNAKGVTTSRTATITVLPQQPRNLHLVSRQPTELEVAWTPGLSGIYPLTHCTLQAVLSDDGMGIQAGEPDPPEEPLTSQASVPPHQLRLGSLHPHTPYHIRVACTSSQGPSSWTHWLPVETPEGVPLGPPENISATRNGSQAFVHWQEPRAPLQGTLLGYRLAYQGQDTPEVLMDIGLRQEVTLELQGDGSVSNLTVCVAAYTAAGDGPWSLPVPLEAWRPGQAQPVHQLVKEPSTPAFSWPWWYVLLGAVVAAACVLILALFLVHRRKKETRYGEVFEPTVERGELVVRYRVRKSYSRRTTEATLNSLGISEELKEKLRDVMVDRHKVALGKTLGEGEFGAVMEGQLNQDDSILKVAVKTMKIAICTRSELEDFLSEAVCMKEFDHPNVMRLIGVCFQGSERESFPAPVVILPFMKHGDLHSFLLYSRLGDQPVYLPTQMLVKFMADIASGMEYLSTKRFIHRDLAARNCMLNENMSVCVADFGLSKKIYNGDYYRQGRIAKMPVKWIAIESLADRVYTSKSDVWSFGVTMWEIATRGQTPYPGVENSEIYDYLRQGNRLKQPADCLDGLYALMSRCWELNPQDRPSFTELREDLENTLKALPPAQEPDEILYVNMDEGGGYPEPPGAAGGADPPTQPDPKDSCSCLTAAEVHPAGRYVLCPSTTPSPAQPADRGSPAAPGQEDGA
# [2] = biological target: High affinity nerve growth factor receptor (Homo sapiens, UniProt P04629); experiment: Inhibition of TrkA by fluorescence polarization competition immunoassay
# [3] = Metabolic stability in dog liver microsomes after 10 mins; format: ADME, Canis lupus familiaris, Microsome; conditions: read-out: Stability
# [4] = Cmax in mouse at 10 mg/kg, po; format: ADME, organism-based; set-up: dose 10 mg/kg, route oral; conditions: in vivo
# [5] = Oral bioavailability in mouse at 10 mg/kg; format: ADME, organism-based; conditions: in vivo
# [6] = Cmax in dog at 10 mg/kg, po; format: ADME, organism-based, Canis lupus familiaris; set-up: dose 10 mg/kg, route oral; conditions: in vivo
# [7] = Cmax in monkey at 10 mg/kg, po; format: ADME, organism-based, Macaca mulatta; set-up: dose 10 mg/kg, route oral; conditions: rhesus monkey, in vivo
# [8] = Volume of distribution at steady state in dog at 2 mg/kg, iv; format: ADME, organism-based, Canis lupus familiaris; set-up: dose 2 mg/kg, route intravenous; conditions: in vivo, read-out: Vdss
# [9] = Half life in monkey at 2 mg/kg, iv; format: ADME, organism-based, Macaca mulatta; set-up: dose 2 mg/kg, route intravenous; conditions: rhesus monkey, in vivo
# [10] = Clearance in monkey at 2 mg/kg, iv; format: ADME, organism-based, Macaca mulatta; set-up: dose 2 mg/kg, route intravenous; conditions: rhesus monkey, in vivo
# [11] = Plasma concentration CSF1-induced B6C3F1 mouse at 3 mg/kg, po after 6 hrs; format: ADME, organism-based; set-up: dose 3 mg/kg, route oral
# Rattus norvegicus [12] = experiment: Reversal of ankle swelling in streptococcal cell wall-induced Lewis rat chronic arthritis model at 10 mg/kg, po twice daily administered on day 19 post streptococcal cell wall challenge; format: functional, organism-based; set-up: dose 10 mg/kg
# Rattus norvegicus [13] = experiment: Reversal of ankle swelling in streptococcal cell wall-induced Lewis rat chronic arthritis model at 1 mg/kg, po twice daily administered on day 19 post streptococcal cell wall challenge; format: functional, organism-based; set-up: dose 1 mg/kg
# Rattus norvegicus [14] = experiment: Antiinflammatory effect in Freund's complete adjuvant-induced Lewis rat arthritis model assessed as prevention of bone erosion at 10 mg/kg, po twice daily administered on day 8 post adjuvant challenge measured on day 21 post adjuvant challenge relative to control; format: functional, organism-based; set-up: dose 10 mg/kg
# Rattus norvegicus [15] = experiment: Inhibition of ankle swelling in Freund's complete adjuvant-induced Lewis rat arthritis model at […], po twice daily administered on day 8 post adjuvant challenge measured on day 21 post adjuvant challenge relative to control; format: functional; conditions: dose 0.33 mg/kg
# Rattus norvegicus [16] = experiment: Antiinflammatory effect in Freund's complete adjuvant-induced Lewis rat arthritis model assessed as prevention of osteoclastogenesis at 3 mg/kg, po twice daily administered on day 8 post adjuvant challenge measured on day 21 post adjuvant challenge relative to control; format: functional, organism-based; set-up: dose 3 mg/kg
# Rattus norvegicus [17] = experiment: Antiinflammatory effect in Freund's complete adjuvant-induced Lewis rat arthritis model assessed as prevention of bone lesion development at tibial tarsal joint at 1 mg/kg, po twice daily administered on day 8 post adjuvant challenge measured on day 21 post adjuvant challenge by microradiography; format: functional, organism-based; set-up: dose 1 mg/kg
# [18] = Plasma concentration in Freund's complete adjuvant-induced Lewis rat arthritis model at 1 mg/kg, po twice daily administered on day 8 post adjuvant challenge measured 7 days after last dose; format: ADME, organism-based; set-up: dose 1 mg/kg, route oral
# [19] = Plasma concentration in Freund's complete adjuvant-induced Lewis rat arthritis model at 3 mg/kg, po twice daily administered on day 8 post adjuvant challenge measured 7 days after last dose; format: ADME, organism-based; set-up: dose 3 mg/kg, route oral
# [20] = Metabolic stability in rat liver microsomes after 10 mins; format: ADME, Microsome; conditions: read-out: Stability
# [21] = Cmax in Sprague-Dawley rat at 10 mg/kg, po; format: ADME, organism-based; set-up: dose 10 mg/kg, route oral; conditions: in vivo
# [22] = Half life in Sprague-Dawley rat at 10 mg/kg, po; format: ADME, organism-based; set-up: dose 10 mg/kg, route oral; conditions: in vivo
# [23] = Volume of distribution at steady state in Sprague-Dawley rat at 2 mg/kg, iv; format: ADME, organism-based; set-up: dose 2 mg/kg, route intravenous; conditions: in vivo, read-out: Vdss
# [24] = Oral bioavailability in Sprague-Dawley rat at 10 mg/kg; format: ADME, organism-based; conditions: in vivo
# Sequence of High affinity nerve growth factor receptor (P04629 whole entry): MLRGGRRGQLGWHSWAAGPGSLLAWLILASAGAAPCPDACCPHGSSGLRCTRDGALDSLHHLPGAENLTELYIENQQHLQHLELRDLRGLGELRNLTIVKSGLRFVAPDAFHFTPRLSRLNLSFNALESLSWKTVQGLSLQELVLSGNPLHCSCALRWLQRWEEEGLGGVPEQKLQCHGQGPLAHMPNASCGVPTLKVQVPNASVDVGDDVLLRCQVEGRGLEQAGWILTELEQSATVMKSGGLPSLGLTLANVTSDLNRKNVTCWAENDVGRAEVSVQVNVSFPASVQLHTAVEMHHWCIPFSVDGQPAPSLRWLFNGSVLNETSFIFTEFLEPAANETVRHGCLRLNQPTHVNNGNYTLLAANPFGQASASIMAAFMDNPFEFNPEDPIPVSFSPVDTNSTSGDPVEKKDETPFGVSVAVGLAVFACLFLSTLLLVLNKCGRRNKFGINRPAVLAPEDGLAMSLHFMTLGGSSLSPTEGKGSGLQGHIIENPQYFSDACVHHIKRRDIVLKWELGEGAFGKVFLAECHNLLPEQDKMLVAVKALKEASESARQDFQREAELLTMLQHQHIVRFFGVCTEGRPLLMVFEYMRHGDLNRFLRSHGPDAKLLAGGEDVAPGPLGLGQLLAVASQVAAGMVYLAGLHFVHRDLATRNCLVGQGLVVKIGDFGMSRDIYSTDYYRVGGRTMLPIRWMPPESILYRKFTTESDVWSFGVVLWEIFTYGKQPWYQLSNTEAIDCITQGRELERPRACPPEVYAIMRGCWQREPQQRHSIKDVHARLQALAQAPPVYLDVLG
structure (smiles),measurement,setting,value
CONC(=O)c1cn(-c2ccc3c(c2)CCC3)c2nc(Nc3ccc(C4CCN(C)CC4)cc3)ncc2c1=O,IC50,[1],> 1000 nM
same,IC50,[2],500 nM
same,remaining at 10 min,[3],51%
same,Cmax,[4],1600 nM
same,bioavailability,[5],51%
same,Cmax,[6],120 nM
same,Cmax,[7],60 nM
same,Vd,[8],20.3 L/kg
same,half-life,[9],6.6 h
same,clearance,[10],48.7 mL/min/kg
same,concentration at 6 h,[11],290 nM
same,Activity,Rattus norvegicus [12],Active
same,Activity,Rattus norvegicus [13],Active
same,Activity,Rattus norvegicus [14],Active
same,inhibition in vivo at […],Rattus norvegicus [15],7%
same,Activity,Rattus norvegicus [16],Active
same,Activity,Rattus norvegicus [17],Active
same,concentration at 168 h,[18],55 nM
same,concentration at 168 h,[19],189 nM
same,remaining at 10 min,[20],96%
same,Cmax,[21],1600 nM
same,half-life,[22],6.9 h
same,Vd,[23],4.3 L/kg
same,bioavailability,[24],100%
